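Exposure lasted 48 hours, with cells grown in 96-well plates and compounds tested at five concentrations. GI50 = concentration required for 50% inhibition of growth. The concentration for full growth arrest is given as TGI.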
Tests used:
Test in all cases: NCI anticancer screen, dose series, 48 h
NCI-H23 lung = system: NCI-H23 lung
T-47D breast = system: T-47D breast
SK-OV-3 ovarian = system: SK-OV-3 ovarian
SK-MEL-28 melanoma = system: SK-MEL-28 melanoma
LOX IMVI melanoma = system: LOX IMVI melanoma
SNB-19 CNS = system: SNB-19 CNS
HS 578T breast = system: HS 578T breast
HOP-62 NSCLC = system: HOP-62 NSCLC
SN12C renal = system: SN12C renal
SNB-75 CNS = system: SNB-75 CNS
OVCAR-4 ovarian = system: OVCAR-4 ovarian
KM12 colon = system: KM12 colon
OVCAR-5 ovarian = system: OVCAR-5 ovarian
NCI-H522 lung = system: NCI-H522 lung
M14 melanoma = system: M14 melanoma
SW-620 colon = system: SW-620 colon
NCI-H226 lung = system: NCI-H226 lung
HL-60(TB) leukemia = system: HL-60(TB) leukemia
TK-10 renal = system: TK-10 renal
HCC-2998 colon = system: HCC-2998 colon
786-0 renal = system: 786-0 renal
MALME-3M melanoma = system: MALME-3M melanoma
RPMI-8226 leukemia = system: RPMI-8226 leukemia
CAKI-1 renal = system: CAKI-1 renal
IGROV1 ovarian = system: IGROV1 ovarian
OVCAR-8 ovarian = system: OVCAR-8 ovarian
SF-539 CNS = system: SF-539 CNS
HCT-15 colon = system: HCT-15 colon
SR leukemia = system: SR leukemia
NCI-H460 lung = system: NCI-H460 lung
CCRF-CEM leukemia = system: CCRF-CEM leukemia
BT-549 breast = system: BT-549 breast
EKVX NSCLC = system: EKVX NSCLC
A549 NSCLC = system: A549 NSCLC
HT29 colon = system: HT29 colon
SK-MEL-5 melanoma = system: SK-MEL-5 melanoma
PC-3 prostate = system: PC-3 prostate
HCT-116 colon = system: HCT-116 colon
MDA-MB-231 breast = system: MDA-MB-231 breast
MCF7 breast = system: MCF7 breast
SF-268 CNS = system: SF-268 CNS
SF-295 CNS = system: SF-295 CNS
NCI/ADR-RES ovarian = system: NCI/ADR-RES ovarian
UO-31 renal = system: UO-31 renal
UACC-62 melanoma = system: UACC-62 melanoma
DU-145 prostate = system: DU-145 prostate
A498 renal = system: A498 renal
HOP-92 NSCLC = system: HOP-92 NSCLC
UACC-257 melanoma = system: UACC-257 melanoma
COLO 205 colon = system: COLO 205 colon
MOLT-4 leukemia = system: MOLT-4 leukemia
OVCAR-3 ovarian = system: OVCAR-3 ovarian
MDA-MB-435 = system: MDA-MB-435
U251 CNS = system: U251 CNS
SK-MEL-2 melanoma = system: SK-MEL-2 melanoma
K-562 leukemia = system: K-562 leukemia
ACHN renal = system: ACHN renal

For O=C(NCCNC1=CC(=O)c2nc3ccccc3c3ccnc1c23)c1cnccn1, the GI50 (NCI-H23 lung) was 46.4 µM, the TGI (NCI-H23 lung) was greater than 100 µM and the GI50 (T-47D breast) was 44.7 µM. It also gave a TGI (T-47D breast) greater than 100 µM, a GI50 (SK-OV-3 ovarian) greater than 100 µM and a TGI (SK-OV-3 ovarian) greater than 100 µM. It also gave a GI50 (SK-MEL-28 melanoma) of 40.9 µM, a TGI (SK-MEL-28 melanoma) greater than 100 µM and a GI50 (LOX IMVI melanoma) of 33.9 µM. The TGI (LOX IMVI melanoma) was greater than 100 µM, the GI50 (SNB-19 CNS) was 42.2 µM and the TGI (SNB-19 CNS) was greater than 100 µM. The GI50 (HS 578T breast) was 32.7 µM, the TGI (HS 578T breast) was greater than 100 µM and the GI50 (HOP-62 NSCLC) was 18.9 µM. For the same molecule, the TGI (HOP-62 NSCLC) was greater than 100 µM, the GI50 (SN12C renal) was 49.5 µM and the TGI (SN12C renal) was greater than 100 µM. The GI50 (SNB-75 CNS) was greater than 100 µM, the TGI (SNB-75 CNS) was greater than 100 µM and the GI50 (OVCAR-4 ovarian) was 83.7 µM. For the same molecule, the TGI (OVCAR-4 ovarian) was greater than 100 µM, the GI50 (KM12 colon) was 11.2 µM and the TGI (KM12 colon) was 63.4 µM. For the same molecule, the GI50 (OVCAR-5 ovarian) was greater than 100 µM, the TGI (OVCAR-5 ovarian) was greater than 100 µM and the GI50 (NCI-H522 lung) was 44 µM. It also gave a TGI (NCI-H522 lung) greater than 100 µM, a GI50 (M14 melanoma) of 40.8 µM and a TGI (M14 melanoma) greater than 100 µM. For the same molecule, the GI50 (SW-620 colon) was 24.2 µM, the TGI (SW-620 colon) was greater than 100 µM and the GI50 (NCI-H226 lung) was 90.7 µM. For the same molecule, the TGI (NCI-H226 lung) was greater than 100 µM, the GI50 (HL-60(TB) leukemia) was 42.8 µM and the TGI (HL-60(TB) leukemia) was greater than 100 µM. For the same molecule, the GI50 (TK-10 renal) was 10.3 µM, the TGI (TK-10 renal) was 37.2 µM and the GI50 (HCC-2998 colon) was 27.6 µM. It also gave a TGI (HCC-2998 colon) greater than 100 µM, a GI50 (786-0 renal) of 36.7 µM and a TGI (786-0 renal) greater than 100 µM. The GI50 (MALME-3M melanoma) was 18.2 µM, the TGI (MALME-3M melanoma) was greater than 100 µM and the GI50 (RPMI-8226 leukemia) was 1.1 µM. It also gave a TGI (RPMI-8226 leukemia) of 24.3 µM, a GI50 (CAKI-1 renal) of 15.8 µM and a TGI (CAKI-1 renal) of 50.9 µM. It also gave a GI50 (IGROV1 ovarian) of 45.2 µM, a TGI (IGROV1 ovarian) greater than 100 µM and a GI50 (OVCAR-8 ovarian) of 24.3 µM. For the same molecule, the TGI (OVCAR-8 ovarian) was greater than 100 µM, the GI50 (SF-539 CNS) was 51.5 µM and the TGI (SF-539 CNS) was greater than 100 µM. The GI50 (HCT-15 colon) was 38 µM, the TGI (HCT-15 colon) was greater than 100 µM and the GI50 (SR leukemia) was 9.26 µM. The TGI (SR leukemia) was greater than 100 µM, the GI50 (NCI-H460 lung) was 18.4 µM and the TGI (NCI-H460 lung) was greater than 100 µM. It also gave a GI50 (CCRF-CEM leukemia) of 1.94 µM, a TGI (CCRF-CEM leukemia) greater than 100 µM and a GI50 (BT-549 breast) of 44.8 µM. For the same molecule, the TGI (BT-549 breast) was greater than 100 µM, the GI50 (EKVX NSCLC) was greater than 100 µM and the TGI (EKVX NSCLC) was greater than 100 µM. It also gave a GI50 (A549 NSCLC) of 36.3 µM, a TGI (A549 NSCLC) greater than 100 µM and a GI50 (HT29 colon) of 33 µM. It also gave a TGI (HT29 colon) greater than 100 µM, a GI50 (SK-MEL-5 melanoma) of 54.7 µM and a TGI (SK-MEL-5 melanoma) greater than 100 µM. The GI50 (PC-3 prostate) was 13.1 µM, the TGI (PC-3 prostate) was greater than 100 µM and the GI50 (HCT-116 colon) was 19.8 µM. It also gave a TGI (HCT-116 colon) greater than 100 µM, a GI50 (MDA-MB-231 breast) of 58.5 µM and a TGI (MDA-MB-231 breast) greater than 100 µM. For the same molecule, the GI50 (MCF7 breast) was 21.4 µM, the TGI (MCF7 breast) was greater than 100 µM and the GI50 (SF-268 CNS) was 31 µM. The TGI (SF-268 CNS) was greater than 100 µM, the GI50 (SF-295 CNS) was 18.9 µM and the TGI (SF-295 CNS) was greater than 100 µM. The GI50 (NCI/ADR-RES ovarian) was 96.6 µM, the TGI (NCI/ADR-RES ovarian) was greater than 100 µM and the GI50 (UO-31 renal) was 62.4 µM. For the same molecule, the TGI (UO-31 renal) was greater than 100 µM, the GI50 (UACC-62 melanoma) was 73.7 µM and the TGI (UACC-62 melanoma) was greater than 100 µM. For the same molecule, the GI50 (DU-145 prostate) was 43.8 µM, the TGI (DU-145 prostate) was greater than 100 µM and the GI50 (A498 renal) was greater than 100 µM. The TGI (A498 renal) was greater than 100 µM, the GI50 (HOP-92 NSCLC) was 16.1 µM and the TGI (HOP-92 NSCLC) was greater than 100 µM. The GI50 (UACC-257 melanoma) was 49.3 µM, the TGI (UACC-257 melanoma) was greater than 100 µM and the GI50 (COLO 205 colon) was 52 µM. The TGI (COLO 205 colon) was greater than 100 µM, the GI50 (MOLT-4 leukemia) was 35.7 µM and the TGI (MOLT-4 leukemia) was greater than 100 µM. It also gave a GI50 (OVCAR-3 ovarian) of 2.42 µM, a TGI (OVCAR-3 ovarian) of 19.1 µM and a GI50 (MDA-MB-435) of 14.5 µM. The TGI (MDA-MB-435) was 63.2 µM, the GI50 (U251 CNS) was 31 µM and the TGI (U251 CNS) was greater than 100 µM. The GI50 (SK-MEL-2 melanoma) was 60.5 µM, the TGI (SK-MEL-2 melanoma) was greater than 100 µM and the GI50 (K-562 leukemia) was 33.6 µM. For the same molecule, the TGI (K-562 leukemia) was greater than 100 µM, the GI50 (ACHN renal) was 32.4 µM and the TGI (ACHN renal) was greater than 100 µM.
